Here are results for 27 compounds from patent US20250230155A1 (Vanderbilt University, priority 2021, published 2025).

The test has as its target T1, human mAChR M4 (Homo sapiens, UniProt P08173).
T1 construct: expressed in transfected cells
T1 sequence (P08173 1-479): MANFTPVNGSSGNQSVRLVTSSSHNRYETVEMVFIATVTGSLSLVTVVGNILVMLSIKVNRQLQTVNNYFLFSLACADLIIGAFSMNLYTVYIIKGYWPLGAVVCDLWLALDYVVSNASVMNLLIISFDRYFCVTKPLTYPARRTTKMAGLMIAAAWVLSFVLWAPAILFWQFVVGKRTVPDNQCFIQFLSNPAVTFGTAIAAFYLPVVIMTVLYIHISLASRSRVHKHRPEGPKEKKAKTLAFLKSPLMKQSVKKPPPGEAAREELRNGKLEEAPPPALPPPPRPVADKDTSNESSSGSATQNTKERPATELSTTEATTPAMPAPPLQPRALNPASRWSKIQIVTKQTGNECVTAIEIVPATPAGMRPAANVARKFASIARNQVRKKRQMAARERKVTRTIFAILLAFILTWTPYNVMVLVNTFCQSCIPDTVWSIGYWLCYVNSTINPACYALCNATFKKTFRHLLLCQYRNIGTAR
The experiment in a line: mAChR M4 cell-based functional assay (calcium mobilization, CHO-K1 hM4-Gqi5 cells). The note with it: for Emax at 30 µM: CHO-K1, % ACh maximum at 30 μM, human M4; for EC50: increase in the EC20 acetylcholine response, CHO-K1 hM4-Gqi5 cells; for Emax: CHO-K1. The method in brief:
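Fluorescent calcium read-out (Fluo-4 AM, FDSS, 1 Hz) in hM4-Gqi5 CHO-K1 cells, 11-point 1:3 compound series. Agonism scored on compound addition, PAM activity as increase of the 144 s EC20 acetylcholine response, antagonism as decrease of the 230 s EC80 response; four-parameter logistic fits give EC50 and Emax.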

Where [1] appears, read: positive allosteric modulator activity, read-out: Human M4 EC50.

Like-named read-outs stand apart in the source and are kept apart here.

The Emax is the size of the effect at its maximum, as opposed to the concentration needed. Broadly, the EC50 is the concentration at which the effect is half-maximal. Regarding `COCc1nc(Cl)c(C)c(N2CCc3ncc(-c4cn(C)nc4C)cc3C2)n1` [compound 216, 6-(6-chloro-2-(methoxymethyl)-5-methylpyrimidin-4-yl)-3-(1,3-dimethyl-1H-pyrazol-4-yl)-5,6,7,8-tetrahydro-1,6-naphthyridine], the maximal effect (Emax) at 30 µM is 94%. The 50% effective concentration (EC50) under setting [1] amounted to 864 nM.

Regarding `COCc1nc(Cl)c(C)c(N2CCc3ncc(-c4cncs4)cc3C2)n1` [compound 217, 5-(6-(6-chloro-2-(methoxymethyl)-5-methylpyrimidin-4-yl)-5,6,7,8-tetrahydro-1,6-naphthyridin-3-yl)thiazole], the Emax at 30 µM was 96%. Further, the half-maximal effective concentration (EC50) under setting [1] turned out to be 539 nM.

Take `Cc1nc(Cl)c(C)c(N2CCc3nc(C(F)(F)F)ccc3C2)n1` [compound 218, 6-(6-chloro-2,5-dimethylpyrimidin-4-yl)-2-(trifluoromethyl)-5,6,7,8-tetrahydro-1,6-naphthyridine]: the Emax at 30 µM stood at 83%. Further, under setting [1], the EC50 was 759 nM.

As to `Cc1nc(Cl)c(C)c(N2Cc3cc(N)cnc3C(C)(C)C2)n1` [compound 219, 6-(6-chloro-2,5-dimethylpyrimidin-4-yl)-8,8-dimethyl-5,6,7,8-tetrahydro-1,6-naphthyridin-3-amine], the maximal response (Emax) was 37%. Also, the concentration giving a half-maximal response (EC50) under setting [1] is no less than 10000 nM.

Take `Cc1nc(Cl)c(C)c(N2CCc3ncc(-c4ccc(N(C)C)nc4)cc3C2)n1` [compound 220, 5-(6-(6-chloro-2,5-dimethylpyrimidin-4-yl)-5,6,7,8-tetrahydro-1,6-naphthyridin-3-yl)-N,N-dimethylpyridin-2-amine]: the Emax at 30 µM was 82%. The EC50 under setting [1] came out at 518 nM.

As for `Cc1nc(C(=O)N2CCOCC2)c(C)c(N2CCc3ncc(C(F)(F)F)cc3C2)n1` [compound 221, (2,5-dimethyl-6-(3-(trifluoromethyl)-7,8-dihydro-1,6-naphthyridin-6(5H)-yl)pyrimidin-4-yl)(morpholino)methanone], the Emax at 30 µM was 25%. Also, the EC50 under setting [1] was no less than 10000 nM.

As to `Cc1nc(Cl)c(C)c(N2Cc3cc([N+](=O)[O-])cnc3C(C)C2)n1` (stereo not drawn) [compound 222, 6-(6-chloro-2,5-dimethylpyrimidin-4-yl)-8-methyl-3-nitro-5,6,7,8-tetrahydro-1,6-naphthyridine], the Emax at 30 µM came out at 91%. Further, the EC50 under setting [1] worked out at 333 nM.

As for `Cc1nc(N2CCCC2)c(C)c(N2CCc3ncc(-c4ccc(F)nc4)cc3C2)n1` [compound 223, 6-(2,5-dimethyl-6-(pyrrolidin-1-yl)pyrimidin-4-yl)-3-(6-fluoropyridin-3-yl)-5,6,7,8-tetrahydro-1,6-naphthyridine], the Emax at 30 µM came out at 56%. Under setting [1], the EC50 is 3290 nM.

On to `Cc1nc(Cl)c(C)c(N2CCc3ncc(-c4ccc(F)nc4)cc3C2)n1` [compound 224, 6-(6-chloro-2,5-dimethylpyrimidin-4-yl)-3-(6-fluoropyridin-3-yl)-5,6,7,8-tetrahydro-1,6-naphthyridine], for which the Emax at 30 µM was 82%. The EC50 under setting [1] turned out to be 214 nM.

On to `Cc1nc(Cl)c(C)c(N2CCc3ncc(C4CC4)cc3C2)n1` [compound 225, 6-(6-chloro-2,5-dimethylpyrimidin-4-yl)-3-cyclopropyl-5,6,7,8-tetrahydro-1,6-naphthyridine], for which the maximum response (Emax) stood at 87%. For the same compound, the EC50 (Human M4 EC50, positive allosteric modulator activity) came out at 57 nM.

Turning to `Cc1nn(C)cc1-c1cnc2c(c1)CN(c1nc(CO)nc(C)c1C)CC2` [compound 226, (4-(3-(1,3-dimethyl-1H-pyrazol-4-yl)-7,8-dihydro-1,6-naphthyridin-6(5H)-yl)-5,6-dimethylpyrimidin-2-yl)methanol], the Emax at 30 µM was 89%. For the same compound, the concentration giving a half-maximal response (EC50) under setting [1] turned out to be 346 nM.

Consider `Cc1nc(C)c(C)c(N2CCc3ncc(-c4ccc(N5CCOCC5)nc4)cc3C2)n1` [compound 227, 4-(5-(6-(2,5,6-trimethylpyrimidin-4-yl)-5,6,7,8-tetrahydro-1,6-naphthyridin-3-yl)pyridin-2-yl)morpholine], for which the Emax at 30 µM was 67%. For the same compound, the concentration for a half-maximal effect (EC50) under setting [1] came out at 266 nM.

For the compound `Cc1nc(C)c(C)c(N2CCc3ncc(-c4ccc(N5CCC(F)(F)C5)nc4)cc3C2)n1` [compound 228, 3-(6-(3,3-difluoropyrrolidin-1-yl)pyridin-3-yl)-6-(2,5,6-trimethylpyrimidin-4-yl)-5,6,7,8-tetrahydro-1,6-naphthyridine], the Emax at 30 µM turned out to be 66%. Also, under setting [1], the EC50 worked out at 890 nM.

For the compound `Cc1nc(C)c(C)c(N2CCc3ncc(-c4ccc(F)nc4)cc3C2)n1` [compound 229, 3-(6-fluoropyridin-3-yl)-6-(2,5,6-trimethylpyrimidin-4-yl)-5,6,7,8-tetrahydro-1,6-naphthyridine], the maximal response (Emax) at 30 µM was determined as 59%. Moreover, the EC50 under setting [1] amounted to 332 nM.

As for `COc1ccc(-c2cnc3c(c2)CN(c2nc(C)nc(C)c2C)CC3)cn1` [compound 230, 3-(6-methoxypyridin-3-yl)-6-(2,5,6-trimethylpyrimidin-4-yl)-5,6,7,8-tetrahydro-1,6-naphthyridine], the Emax at 30 µM is 65%. The concentration giving a half-maximal response (EC50) under setting [1] amounted to 279 nM.

As to `Cc1nc(C)c(C)c(N2CCc3ncc(-c4ccc(N5CCCC5)nc4)cc3C2)n1` [compound 231, 3-(6-(pyrrolidin-1-yl)pyridin-3-yl)-6-(2,5,6-trimethylpyrimidin-4-yl)-5,6,7,8-tetrahydro-1,6-naphthyridine], the maximum response (Emax) at 30 µM was determined as 63%. Besides, under setting [1], the EC50 amounted to 668 nM.

`Cc1nc(C)c(C)c(N2CCc3ncc(-c4ccc(-n5ccnc5)nc4)cc3C2)n1` [compound 232, 3-(6-(1H-imidazol-1-yl)pyridin-3-yl)-6-(2,5,6-trimethylpyrimidin-4-yl)-5,6,7,8-tetrahydro-1,6-naphthyridine]: the Emax at 30 µM came to 61%. For the same compound, the EC50 under setting [1] was determined as 263 nM.

Regarding `Cc1nc(C)c(C)c(N2CCc3ncc(-c4ccc(N5CCN(C)CC5)nc4)cc3C2)n1` [compound 233, 3-(6-(4-methylpiperazin-1-yl)pyridin-3-yl)-6-(2,5,6-trimethylpyrimidin-4-yl)-5,6,7,8-tetrahydro-1,6-naphthyridine], the Emax at 30 µM was found to be 80%. For the same compound, the EC50 under setting [1] was 366 nM.

`Cc1nc(C)c(C)c(N2CCc3ncc(-c4ccc(N5CCC5)nc4)cc3C2)n1` [compound 234, 3-(6-(azetidin-1-yl)pyridin-3-yl)-6-(2,5,6-trimethylpyrimidin-4-yl)-5,6,7,8-tetrahydro-1,6-naphthyridine]: the Emax at 30 µM was determined as 63%. In addition, the half-maximal effective concentration (EC50) under setting [1] was 354 nM.

With `Cc1nc(C)c(C)c(N2CCc3ncc(C(F)(F)F)cc3C2)n1` [compound 235, 3-(trifluoromethyl)-6-(2,5,6-trimethylpyrimidin-4-yl)-5,6,7,8-tetrahydro-1,6-naphthyridine], the maximum response (Emax) at 30 µM is 87%. For the same compound, the 50% effective concentration (EC50) under setting [1] turned out to be 350 nM.

For `Cc1nc(Cl)c(C)c(N2Cc3cc(Br)cnc3C(C)(C)C2)n1` [compound 236, 3-bromo-6-(6-chloro-2,5-dimethylpyrimidin-4-yl)-8,8-dimethyl-5,6,7,8-tetrahydro-1,6-naphthyridine], the maximal response (Emax) worked out at 29%. Besides, the EC50 under setting [1] is no less than 10000 nM.

In the case of `Cc1c(Cl)nc(C(F)(F)F)nc1N1CCc2ncc(C(F)(F)F)cc2C1` [compound 237, 6-(6-chloro-5-methyl-2-(trifluoromethyl)pyrimidin-4-yl)-3-(trifluoromethyl)-5,6,7,8-tetrahydro-1,6-naphthyridine], the Emax at 30 µM was 73%. Moreover, the EC50 under setting [1] was determined as 2960 nM.

As for `Cc1nc(Cl)c(C)c(N2Cc3cc(-c4cn(C)nc4C)cnc3C(C)(C)C2)n1` [compound 238, 6-(6-chloro-2,5-dimethylpyrimidin-4-yl)-3-(1,3-dimethyl-1H-pyrazol-4-yl)-8,8-dimethyl-5,6,7,8-tetrahydro-1,6-naphthyridine], the Emax at 30 µM was found to be 36%. Moreover, the EC50 under setting [1] is 819 nM.

Regarding `Cc1nc(Cl)c(C)c(N2Cc3cc(Nc4ccnn4C)cnc3C(C)(C)C2)n1` [compound 239, 6-(6-chloro-2,5-dimethylpyrimidin-4-yl)-8,8-dimethyl-N-(1-methyl-1H-pyrazol-5-yl)-5,6,7,8-tetrahydro-1,6-naphthyridin-3-amine], the maximal effect (Emax) at 30 µM was found to be 58%. For the same compound, the concentration for a half-maximal effect (EC50) under setting [1] was 911 nM.

For `Cc1nc(C)c(C)c(N2CCc3ncc(Nc4cccnc4F)cc3C2)n1` [compound 240, N-(2-fluoropyridin-3-yl)-6-(2,5,6-trimethylpyrimidin-4-yl)-5,6,7,8-tetrahydro-1,6-naphthyridin-3-amine], the Emax at 30 µM is 61%. Further, the EC50 under setting [1] turned out to be 154 nM.

For `Cc1nc(C)c(C)c(N2CCc3ncc(Nc4ccnn4C)cc3C2)n1` [compound 241, N-(1-methyl-1H-pyrazol-5-yl)-6-(2,5,6-trimethylpyrimidin-4-yl)-5,6,7,8-tetrahydro-1,6-naphthyridin-3-amine], the Emax at 30 µM was 81%. Besides, the EC50 under setting [1] stood at 111 nM.

On to `Cc1c(Cl)nc(C(F)(F)F)nc1N1CCc2ncc(C3CC3)cc2C1` [compound 242, 6-(6-chloro-5-methyl-2-(trifluoromethyl)pyrimidin-4-yl)-3-cyclopropyl-5,6,7,8-tetrahydro-1,6-naphthyridine], for which the maximal effect (Emax) at 30 µM was 83%. Moreover, the EC50 under setting [1] turned out to be 1870 nM.
